Tests used:
[1] = target: Serine/threonine-protein kinase D1 (Homo sapiens) (UniProt Q15139); assay: activity of PKCmu(h) at 1.0 µM in the Eurofins Kinase panel; conditions: Compound concentration 1.0 uM
[2] = target: Serine/threonine-protein kinase LATS1 (Homo sapiens) (UniProt O95835); assay: activity of LATS1(h) at 1.0 µM in the Eurofins Kinase panel; conditions: Compound concentration 1.0 uM
[3] = target: Serine/threonine-protein kinase BRSK1 (Homo sapiens) (UniProt Q8TDC3); assay: activity of BrSK1(h) at 1.0 µM in the Eurofins Kinase panel; conditions: Compound concentration 1.0 uM
[4] = target: Inhibitor of nuclear factor kappa-B kinase subunit alpha (Homo sapiens) (UniProt O15111); assay: activity of IKKalpha(h) at 1.0 µM in the Eurofins Kinase panel; conditions: Compound concentration 1.0 uM
[5] = target: Serine/threonine-protein kinase D2 (Homo sapiens) (UniProt Q9BZL6); assay: activity of PKD2(h) at 1.0 µM in the Eurofins Kinase panel; conditions: Compound concentration 1.0 uM
[6] = target: Dual specificity mitogen-activated protein kinase kinase 6 (Homo sapiens) (UniProt P52564); assay: activity of MKK6(h) at 1.0 µM in the Eurofins Kinase panel; conditions: Compound concentration 1.0 uM
[7] = target: Tyrosine-protein kinase ITK/TSK (Homo sapiens) (UniProt Q08881); assay: activity of Itk(h) at 1.0 µM in the Eurofins Kinase panel; conditions: Compound concentration 1.0 uM
[8] = target: CDK4/Cyclin D3 (Homo sapiens) (UniProt P11802+P30281); assay: activity of CDK4/cyclinD3(h) at 1.0 µM in the Eurofins Kinase panel; format: protein-complex assay; conditions: Compound concentration 1.0 uM
[9] = target: Tyrosine-protein kinase HCK (Homo sapiens) (UniProt P08631); assay: activity of Hck(h) activated at 1.0 µM in the Eurofins Kinase panel; conditions: Compound concentration 1.0 uM
[10] = target: Eukaryotic elongation factor 2 kinase (Homo sapiens) (UniProt O00418); assay: activity of eEF-2K(h) at 1.0 µM in the Eurofins Kinase panel; conditions: Compound concentration 1.0 uM
[11] = target: Macrophage colony-stimulating factor 1 receptor (Homo sapiens) (UniProt P07333); assay: activity of Fms(h) at 1.0 µM in the Eurofins Kinase panel; conditions: Compound concentration 1.0 uM
[12] = target: CDK3/Cyclin E (Homo sapiens) (UniProt P24864+Q00526); assay: activity of CDK3/cyclinE(h) at 1.0 µM in the Eurofins Kinase panel; format: protein-complex assay; conditions: Compound concentration 1.0 uM
[13] = target: Transcription initiation factor TFIID subunit 1-like (Homo sapiens) (UniProt Q8IZX4); assay: activity of TAF1L(h) at 1.0 µM in the Eurofins Kinase panel; conditions: Compound concentration 1.0 uM
[14] = target: Serine/threonine-protein kinase STK11 (Homo sapiens) (UniProt Q15831); assay: activity of LKB1(h) at 1.0 µM in the Eurofins Kinase panel; conditions: Compound concentration 1.0 uM
[15] = target: Cyclin-G-associated kinase (Homo sapiens, UniProt O14976); assay: Promega NanoBRET (GAK)
[16] = target: Serine/threonine-protein kinase VRK1 (Homo sapiens) (UniProt Q99986); assay: activity of VRK1(h) at 1.0 µM in the Eurofins Kinase panel; conditions: Compound concentration 1.0 uM
[17] = target: Mast/stem cell growth factor receptor Kit (Homo sapiens) (UniProt P10721); assay: activity of cKit(h) at 1.0 µM in the Eurofins Kinase panel; conditions: Compound concentration 1.0 uM
[18] = target: Serine/threonine-protein kinase PLK3 (Homo sapiens) (UniProt Q9H4B4); assay: activity of Plk3(h) at 1.0 µM in the Eurofins Kinase panel; conditions: Compound concentration 1.0 uM
[19] = target: Serine/threonine-protein kinase pim-2 (Homo sapiens) (UniProt Q9P1W9); assay: activity of Pim-2(h) at 1.0 µM in the Eurofins Kinase panel; conditions: Compound concentration 1.0 uM
[20] = target: Tyrosine-protein kinase ABL2 (Homo sapiens) (UniProt P42684); assay: activity of Arg(h) at 1.0 µM in the Eurofins Kinase panel; conditions: Compound concentration 1.0 uM
[21] = target: Myosin-IIIb (Homo sapiens) (UniProt Q8WXR4); assay: activity of MYO3B(h) at 1.0 µM in the Eurofins Kinase panel; conditions: Compound concentration 1.0 uM
[22] = target: Mitogen-activated protein kinase kinase kinase 2 (Homo sapiens) (UniProt Q9Y2U5); assay: activity of MEKK2(h) at 1.0 µM in the Eurofins Kinase panel; conditions: Compound concentration 1.0 uM
[23] = target: Serine/threonine-protein kinase DCLK3 (Homo sapiens) (UniProt Q9C098); assay: activity of DCAMKL3(h) at 1.0 µM in the Eurofins Kinase panel; conditions: Compound concentration 1.0 uM
[24] = target: Serine/threonine-protein kinase D3 (Homo sapiens) (UniProt O94806); assay: activity of PKD3(h) at 1.0 µM in the Eurofins Kinase panel; conditions: Compound concentration 1.0 uM
[25] = target: Protein kinase C gamma type (Homo sapiens) (UniProt P05129); assay: activity of PKCgamma(h) at 1.0 µM in the Eurofins Kinase panel; conditions: Compound concentration 1.0 uM
[26] = target: Serine/threonine-protein kinase/endoribonuclease IRE1 (Homo sapiens) (UniProt O75460); assay: activity of IRE1(h) at 1.0 µM in the Eurofins Kinase panel; conditions: Compound concentration 1.0 uM
[27] = target: Fibroblast growth factor receptor 4 (Homo sapiens) (UniProt P22455); assay: activity of FGFR4(h) at 1.0 µM in the Eurofins Kinase panel; conditions: Compound concentration 1.0 uM
[28] = target: Tau-tubulin kinase 1 (Homo sapiens) (UniProt Q5TCY1); assay: activity of TTBK1(h) at 1.0 µM in the Eurofins Kinase panel; conditions: Compound concentration 1.0 uM
[29] = target: Serine/threonine-protein kinase LATS2 (Homo sapiens) (UniProt Q9NRM7); assay: activity of LATS2(h) at 1.0 µM in the Eurofins Kinase panel; conditions: Compound concentration 1.0 uM
[30] = target: Glycogen synthase kinase-3 alpha (Homo sapiens) (UniProt P49840); assay: activity of GSK3alpha(h) at 1.0 µM in the Eurofins Kinase panel; conditions: Compound concentration 1.0 uM
[31] = target: CDK9/cyclin T1 (Homo sapiens) (UniProt O60563+P50750); assay: activity of CDK9/cyclin T1(h) at 1.0 µM in the Eurofins Kinase panel; format: protein-complex assay; conditions: Compound concentration 1.0 uM
[32] = target: Serine/threonine-protein kinase 38-like (Homo sapiens) (UniProt Q9Y2H1); assay: activity of NDR2(h) at 1.0 µM in the Eurofins Kinase panel; conditions: Compound concentration 1.0 uM
[33] = target: MAP kinase-activated protein kinase 5 (Homo sapiens) (UniProt Q8IW41); assay: activity of PRAK(h) at 1.0 µM in the Eurofins Kinase panel; conditions: Compound concentration 1.0 uM
[34] = target: PAS domain-containing serine/threonine-protein kinase (Homo sapiens) (UniProt Q96RG2); assay: activity of PASK(h) at 1.0 µM in the Eurofins Kinase panel; conditions: Compound concentration 1.0 uM
[35] = target: LIM domain kinase 1 (Homo sapiens) (UniProt P53667); assay: activity of LIMK1(h) at 1.0 µM in the Eurofins Kinase panel; conditions: Compound concentration 1.0 uM
[36] = target: Proto-oncogene tyrosine-protein kinase Src (Homo sapiens) (UniProt P12931); assay: activity of cSRC(h) at 1.0 µM in the Eurofins Kinase panel; conditions: Compound concentration 1.0 uM
[37] = target: Ribosomal protein S6 kinase alpha-4 (Homo sapiens) (UniProt O75676); assay: activity of MSK2(h) at 1.0 µM in the Eurofins Kinase panel; conditions: Compound concentration 1.0 uM
[38] = target: Serine/threonine-protein kinase 32B (Homo sapiens) (UniProt Q9NY57); assay: activity of STK32B(h) at 1.0 µM in the Eurofins Kinase panel; conditions: Compound concentration 1.0 uM
[39] = target: Casein kinase I isoform delta (Homo sapiens) (UniProt P48730); assay: activity of CK1delta(h) at 1.0 µM in the Eurofins Kinase panel; conditions: Compound concentration 1.0 uM

Sequence of Serine/threonine-protein kinase D3 (Homo sapiens) (O94806 whole entry): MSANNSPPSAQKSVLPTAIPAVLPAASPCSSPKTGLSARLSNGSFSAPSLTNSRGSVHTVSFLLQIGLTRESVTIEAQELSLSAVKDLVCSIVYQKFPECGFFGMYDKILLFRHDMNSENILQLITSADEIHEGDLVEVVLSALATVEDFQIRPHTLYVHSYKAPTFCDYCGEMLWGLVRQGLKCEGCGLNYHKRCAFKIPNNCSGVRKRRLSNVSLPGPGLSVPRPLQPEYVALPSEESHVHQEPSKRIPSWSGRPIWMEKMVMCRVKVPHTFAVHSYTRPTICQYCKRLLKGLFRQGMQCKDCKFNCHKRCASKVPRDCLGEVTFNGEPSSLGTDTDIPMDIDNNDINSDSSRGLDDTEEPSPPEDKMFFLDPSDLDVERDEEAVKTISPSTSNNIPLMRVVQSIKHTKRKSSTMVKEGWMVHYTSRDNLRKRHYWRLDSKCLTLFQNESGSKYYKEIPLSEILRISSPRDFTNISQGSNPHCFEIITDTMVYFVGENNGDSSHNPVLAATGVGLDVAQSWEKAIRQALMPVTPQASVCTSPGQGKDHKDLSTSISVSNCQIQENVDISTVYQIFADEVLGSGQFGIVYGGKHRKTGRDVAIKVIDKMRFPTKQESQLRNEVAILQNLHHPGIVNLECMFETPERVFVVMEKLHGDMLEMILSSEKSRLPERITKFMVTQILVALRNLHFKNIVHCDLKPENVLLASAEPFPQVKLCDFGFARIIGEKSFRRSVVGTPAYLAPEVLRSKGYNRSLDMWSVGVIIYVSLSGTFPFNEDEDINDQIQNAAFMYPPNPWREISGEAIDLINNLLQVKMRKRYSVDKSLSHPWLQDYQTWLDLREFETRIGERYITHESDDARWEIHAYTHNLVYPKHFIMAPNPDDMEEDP
Sequence of Serine/threonine-protein kinase LATS2 (Homo sapiens) (Q9NRM7 whole entry): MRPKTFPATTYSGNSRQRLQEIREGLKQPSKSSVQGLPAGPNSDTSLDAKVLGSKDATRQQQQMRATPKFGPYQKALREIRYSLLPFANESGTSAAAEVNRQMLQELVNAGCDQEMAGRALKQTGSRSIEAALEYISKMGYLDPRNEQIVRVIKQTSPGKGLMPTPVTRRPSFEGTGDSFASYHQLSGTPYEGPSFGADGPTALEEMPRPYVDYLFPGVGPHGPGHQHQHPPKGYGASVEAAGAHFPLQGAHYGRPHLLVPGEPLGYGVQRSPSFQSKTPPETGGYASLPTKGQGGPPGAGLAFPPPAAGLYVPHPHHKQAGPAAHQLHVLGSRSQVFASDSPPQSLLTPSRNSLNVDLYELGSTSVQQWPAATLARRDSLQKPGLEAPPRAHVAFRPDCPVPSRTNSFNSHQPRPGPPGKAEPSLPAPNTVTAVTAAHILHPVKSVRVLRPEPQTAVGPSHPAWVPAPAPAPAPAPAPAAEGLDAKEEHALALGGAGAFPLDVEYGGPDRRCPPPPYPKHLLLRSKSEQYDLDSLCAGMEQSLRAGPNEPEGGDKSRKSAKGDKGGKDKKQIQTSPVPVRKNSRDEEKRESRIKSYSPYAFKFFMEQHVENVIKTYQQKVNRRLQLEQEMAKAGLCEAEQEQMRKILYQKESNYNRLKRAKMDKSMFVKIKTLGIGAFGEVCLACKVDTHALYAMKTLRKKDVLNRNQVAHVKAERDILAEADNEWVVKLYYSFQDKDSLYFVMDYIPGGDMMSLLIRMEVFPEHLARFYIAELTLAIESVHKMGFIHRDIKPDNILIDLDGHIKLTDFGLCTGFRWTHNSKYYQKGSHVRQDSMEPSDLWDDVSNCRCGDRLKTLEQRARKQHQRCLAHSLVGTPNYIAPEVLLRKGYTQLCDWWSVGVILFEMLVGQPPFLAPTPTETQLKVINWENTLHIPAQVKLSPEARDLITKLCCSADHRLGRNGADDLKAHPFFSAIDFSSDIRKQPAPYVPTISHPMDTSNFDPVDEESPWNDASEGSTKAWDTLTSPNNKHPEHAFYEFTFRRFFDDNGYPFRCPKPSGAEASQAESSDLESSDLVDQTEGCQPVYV
Sequence of Tyrosine-protein kinase HCK (Homo sapiens) (P08631 2-526 limits assumed): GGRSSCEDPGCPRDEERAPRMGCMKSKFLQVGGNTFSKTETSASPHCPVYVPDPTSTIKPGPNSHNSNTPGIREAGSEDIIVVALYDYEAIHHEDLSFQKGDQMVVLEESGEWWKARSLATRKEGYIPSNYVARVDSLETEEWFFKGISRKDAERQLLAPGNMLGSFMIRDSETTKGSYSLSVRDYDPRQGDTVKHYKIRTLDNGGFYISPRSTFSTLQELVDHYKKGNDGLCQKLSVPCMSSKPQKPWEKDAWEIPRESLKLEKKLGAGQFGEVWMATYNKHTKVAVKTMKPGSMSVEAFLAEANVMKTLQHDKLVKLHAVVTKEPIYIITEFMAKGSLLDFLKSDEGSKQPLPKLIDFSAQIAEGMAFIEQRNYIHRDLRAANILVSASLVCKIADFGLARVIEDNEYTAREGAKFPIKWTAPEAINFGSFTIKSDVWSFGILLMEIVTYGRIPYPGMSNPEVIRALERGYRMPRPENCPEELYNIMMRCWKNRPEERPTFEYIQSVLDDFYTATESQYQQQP
Sequence of Cyclin-G-associated kinase (O14976 whole entry): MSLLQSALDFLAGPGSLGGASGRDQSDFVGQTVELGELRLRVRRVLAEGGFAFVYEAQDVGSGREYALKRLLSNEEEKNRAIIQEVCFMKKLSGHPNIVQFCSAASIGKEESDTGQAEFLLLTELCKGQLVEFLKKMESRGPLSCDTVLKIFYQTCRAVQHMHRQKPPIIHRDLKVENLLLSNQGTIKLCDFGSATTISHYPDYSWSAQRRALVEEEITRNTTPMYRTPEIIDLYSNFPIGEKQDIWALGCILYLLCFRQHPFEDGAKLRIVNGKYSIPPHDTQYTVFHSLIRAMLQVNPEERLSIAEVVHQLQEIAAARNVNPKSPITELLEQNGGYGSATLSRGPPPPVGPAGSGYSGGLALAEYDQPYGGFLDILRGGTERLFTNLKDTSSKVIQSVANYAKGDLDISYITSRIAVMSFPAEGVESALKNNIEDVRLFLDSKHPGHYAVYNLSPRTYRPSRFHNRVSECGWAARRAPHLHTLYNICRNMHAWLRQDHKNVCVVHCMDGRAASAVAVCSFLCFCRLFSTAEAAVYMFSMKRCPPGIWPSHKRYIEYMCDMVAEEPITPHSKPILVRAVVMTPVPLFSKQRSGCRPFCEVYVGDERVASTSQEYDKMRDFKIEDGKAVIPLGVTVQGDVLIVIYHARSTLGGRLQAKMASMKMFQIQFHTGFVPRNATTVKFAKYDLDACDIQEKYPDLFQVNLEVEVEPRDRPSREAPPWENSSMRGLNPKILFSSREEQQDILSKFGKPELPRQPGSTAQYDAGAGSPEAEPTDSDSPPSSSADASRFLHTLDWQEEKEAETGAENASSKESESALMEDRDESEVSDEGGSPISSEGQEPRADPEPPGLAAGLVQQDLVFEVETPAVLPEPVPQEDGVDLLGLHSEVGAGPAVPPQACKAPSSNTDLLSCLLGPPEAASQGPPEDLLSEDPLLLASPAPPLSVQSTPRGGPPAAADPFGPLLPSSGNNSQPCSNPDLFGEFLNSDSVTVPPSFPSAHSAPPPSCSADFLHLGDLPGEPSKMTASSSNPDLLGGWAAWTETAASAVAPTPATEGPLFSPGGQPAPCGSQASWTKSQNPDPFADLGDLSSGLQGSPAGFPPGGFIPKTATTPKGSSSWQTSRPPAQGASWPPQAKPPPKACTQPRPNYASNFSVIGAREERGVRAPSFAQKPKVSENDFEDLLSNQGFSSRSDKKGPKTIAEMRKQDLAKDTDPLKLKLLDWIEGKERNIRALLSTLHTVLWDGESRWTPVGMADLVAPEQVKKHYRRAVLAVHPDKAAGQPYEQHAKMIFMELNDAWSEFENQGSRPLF
Sequence of Fibroblast growth factor receptor 4 (Homo sapiens) (P22455 22-802 limits assumed): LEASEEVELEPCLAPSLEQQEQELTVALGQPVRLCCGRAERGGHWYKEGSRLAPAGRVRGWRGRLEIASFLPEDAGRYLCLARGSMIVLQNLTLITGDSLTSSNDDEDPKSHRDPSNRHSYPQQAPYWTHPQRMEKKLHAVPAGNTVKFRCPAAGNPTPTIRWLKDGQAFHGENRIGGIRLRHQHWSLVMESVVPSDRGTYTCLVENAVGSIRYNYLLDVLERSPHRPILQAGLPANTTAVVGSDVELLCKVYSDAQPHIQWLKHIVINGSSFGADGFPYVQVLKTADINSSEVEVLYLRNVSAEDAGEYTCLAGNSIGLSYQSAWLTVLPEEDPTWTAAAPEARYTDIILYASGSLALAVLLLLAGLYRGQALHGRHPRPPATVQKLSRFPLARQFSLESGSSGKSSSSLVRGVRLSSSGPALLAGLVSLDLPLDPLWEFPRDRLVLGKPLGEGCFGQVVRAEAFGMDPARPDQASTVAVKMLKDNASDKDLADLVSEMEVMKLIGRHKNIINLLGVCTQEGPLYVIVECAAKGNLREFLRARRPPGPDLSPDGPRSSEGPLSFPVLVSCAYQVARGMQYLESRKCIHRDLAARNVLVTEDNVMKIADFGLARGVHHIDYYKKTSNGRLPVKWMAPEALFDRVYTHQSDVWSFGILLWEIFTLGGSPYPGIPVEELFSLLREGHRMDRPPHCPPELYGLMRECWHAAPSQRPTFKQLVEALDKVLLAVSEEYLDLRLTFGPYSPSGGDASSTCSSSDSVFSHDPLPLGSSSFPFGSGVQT
Sequence of Serine/threonine-protein kinase 38-like (Homo sapiens) (Q9Y2H1 2-464 limits assumed): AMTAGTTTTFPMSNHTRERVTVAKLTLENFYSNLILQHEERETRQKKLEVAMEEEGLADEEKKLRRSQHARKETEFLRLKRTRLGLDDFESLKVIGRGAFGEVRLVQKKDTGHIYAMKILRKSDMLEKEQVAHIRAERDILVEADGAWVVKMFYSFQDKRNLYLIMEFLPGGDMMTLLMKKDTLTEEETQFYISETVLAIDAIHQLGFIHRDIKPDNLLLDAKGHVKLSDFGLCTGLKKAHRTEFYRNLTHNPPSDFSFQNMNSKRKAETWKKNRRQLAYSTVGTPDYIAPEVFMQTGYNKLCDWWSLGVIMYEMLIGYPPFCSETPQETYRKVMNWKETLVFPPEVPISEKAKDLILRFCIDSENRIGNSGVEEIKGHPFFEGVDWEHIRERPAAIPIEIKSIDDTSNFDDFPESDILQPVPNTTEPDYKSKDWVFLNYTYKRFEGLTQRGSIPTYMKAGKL

activity [1]: 109%
activity [2]: 90%
activity [3]: 96%
activity [4]: 98%
activity [5]: 95%
activity [6]: 101%
activity [7]: 86%
activity [8]: 74%
activity [9]: 111%
activity [10]: 92%
activity [11]: 115%
activity [12]: 102%
activity [13]: 101%
activity [14]: 99%
IC50 [15]: > 10 µM (not active)
activity [16]: 99%
activity [17]: 85%
activity [18]: 100%
activity [19]: 117%
activity [20]: 72%
activity [21]: 79%
activity [22]: 122%
activity [23]: 86%
activity [24]: 97%
activity [25]: 97%
activity [26]: 99%
activity [27]: 114%
activity [28]: 96%
activity [29]: 102%
activity [30]: 87%
activity [31]: 81%
activity [32]: 107%
activity [33]: 107%
activity [34]: 72%
activity [35]: 70%
activity [36]: 93%
activity [37]: 88%
activity [38]: 115%
activity [39]: 96%
SMILES: Cc1cc2c(-c3ccc(NC(=O)[C@H](N)CC(C)(C)C)cc3C)ccnc2[nH]1

From ChEMBL document CHEMBL5723584 (2023)
